Experimental data as given in US20230065816A1, “METHODS FOR PREVENTING AND REVERSING OPIOID ANALGESIC TOLERANCE IN SUBJECTS WITH CHRONIC PAIN” (The Reasearch Foundation for Suny, priority 2020, published 2023).
“Also recorded” adds a separate entry of the source.

Assays:
[1] = tested on: rats with spinal nerve ligation (SpNL); test: von Frey mechanical allodynia test, tolerance from chronic systemic morphine (s.c. morphine pellets); settings: for reversal of spinal morphine antiallodynic tolerance induced by chronic systemic morphine, single agent: CSD or S-CSD 10 μg, PP2 or PP3 300 ng, i.t. on day 8, 45 min before i.t. morphine; for prevention of antiallodynic tolerance to chronic systemic morphine, male rats / prevention of antiallodynic tolerance to chronic systemic morphine, female rats: i.t. 45 min before s.c. morphine pellet implantation on days 1, 3, 5; for prevention of antiallodynic tolerance to chronic systemic morphine, male rats: 10 μg; for prevention of antiallodynic tolerance to chronic systemic morphine, female rats: dose 6 μg or 10 μg
[2] = tested on: rats with spinal nerve ligation (SpNL); test: von Frey mechanical allodynia test, spinal morphine tolerance from chronic i.t. morphine; settings: for reversal of spinal morphine antiallodynic tolerance by the single agent: CSD 10 μg or PP2 300 ng i.t. 45 min before i.t. morphine on day 8 or 9 of daily i.t. 15 μg morphine; for reversal of spinal morphine antiallodynic tolerance by the single agent / duration of reversal of morphine tolerance by the single agent: FIGS. 3A, 3B; for duration of reversal of morphine tolerance by the single agent: CSD 10 μg or PP2 300 ng i.t.
rats [3] = test: tail flick latency test, spinal morphine tolerance from chronic i.t. morphine; settings: 9 days of daily 15 μg i.t. morphine
rats [4] = test: tail flick latency test, tolerance from chronic systemic morphine (s.c. morphine pellets); settings: i.t. CSD with s.c. morphine pellets; FIG. 4B

Molecule: Nc1ncnc2c1cnn2-c1ccccc1 [PP3, 1-Phenyl-1H-pyrazolo[3,4-d]pyrimidin-4-amine]
- reversal of spinal morphine antiallodynic tolerance induced by chronic systemic morphine, single agent ([1]; FIGS. 6A, 6B): failed to alter antiallodynic action of i.t. morphine; also recorded: devoid of any effect

Molecule: H-Arg-Gln-Ile-Lys-Ile-Trp-Phe-Gln-Asn-Arg-Arg-Met-Lys-Trp-Lys-Lys-Trp-Gly-Ille-Asp-Lys-Ala-Ser-Phe-Thr-Thr-Phe-Thr-Val-Thr-Lys-Tyr-Trp-Phe-Arg-Tyr-OH (H-RQIKIWFQNRRMKWKKWGIDKASFTTFTVTKYWFRY-OH) [S-CSD]
- reversal of spinal morphine antiallodynic tolerance induced by chronic systemic morphine, single agent ([1]; FIGS. 6A, 6B): failed to alter antiallodynic action of i.t. morphine; also recorded: had no effect
- prevention of antiallodynic tolerance to chronic systemic morphine, male rats ([1]; FIG. 4C): failed to alter morphine tolerance development
- prevention of antiallodynic tolerance to chronic systemic morphine, female rats ([1]; FIG. 4A): remained minimal; also recorded: failed to alter morphine tolerance development

Molecule: CC(C)(C)n1nc(-c2ccc(Cl)cc2)c2c(N)ncnc21 [PP2, 3-(4-chlorophenyl) 1-(1,1-dimethylethyl)-1H-pyrazolo[3,4-d]pyrimidin-4-amine]
- reversal of spinal morphine antiallodynic tolerance by the single agent [2]: attenuated spinal opioid antiallodynic tolerance
- duration of reversal of morphine tolerance by the single agent ([2]; chronic i.t. morphine): lasted for multiple days
- share of opioid naive i.t. morphine responsiveness restored ([2]; PP2 300 ng i.t. 45 min before i.t. morphine, chronic i.t. morphine, FIG. 3B): approximately 60%
- duration of tolerance-reversing effect ([1]; CSD 10 μg or PP2 300 ng i.t. on day 8, chronic systemic morphine, FIGS. 6A, 6B): less than 24 hours
- reversal of spinal morphine antiallodynic tolerance induced by chronic systemic morphine, single agent ([1]; FIGS. 6A, 6B): essentially fully restored i.t. morphine antiallodynic action; also recorded: fully restored i.t. morphine antiallodynic effects

Molecule: CN1CC[C@]23c4c5ccc(O)c4O[C@H]2[C@@H](O)C=C[C@H]3[C@H]1C5 [morphine, (5a,6a)-7,8-didehydro-4,5-epoxy-17-methylmorphinan-3,6-diol]
- analgesic effect of i.t. morphine after chronic daily i.t. morphine (tolerance), tail flick (rats [3]): lost most of its analgesic effect
- i.t. morphine antiallodynia ED50, morphine naive rats ([2]; FIG. 1B): 3.9 µg
- i.t. morphine antiallodynia ED50, morphine tolerant rats ([2]; after chronic daily i.t. morphine, FIG. 1B): 13.1 µg
- times more morphine required in tolerant than in naive rats for comparable antiallodynia ([2]; chronic daily i.t. morphine, FIG. 1B): 3.4 times
- antiallodynic responsiveness to i.t. morphine after chronic daily i.t. morphine (tolerance) ([2]; i.t. morphine 15 μg daily, 6 to 9 days, no CSD/PP2): complete loss of antiallodynic responsiveness; also recorded: lost most of its antiallodynic effectiveness
- i.t. morphine antiallodynia ED50, opioid naive rats ([1]; before pelleting, FIG. 5): 5.5 µg
- fold increase of i.t. morphine ED50 in tolerant vs. opioid naive rats ([1]; chronic systemic morphine, FIG. 5): 3.6 fold
- reduction of i.t. morphine antiallodynic effects by chronic systemic morphine ([1]; day 7 of morphine pelleting, before PP2, FIG. 6B): approximately 80%
- i.t. morphine antiallodynia ED50, chronic systemic morphine-treated (tolerant) rats ([1]; s.c. morphine pellets, FIG. 5): 19.7 µg

Molecule: H-Arg-Gln-Ile-Lys-Ile-Trp-Phe-Gln-Asn-Arg-Arg-Met-Lys-Trp-Lys-Lys-Asp-Gly-Ile-Trp-Lys-Ala-Ser-Phe-Thr-Thr-Phe-Thr-Val-Thr-Lys-Tyr-Trp-Phe-Tyr-Arg-OH (H-RQIKIWFQNRRMKWKKDGIWKASFTTFTVTKYWFYR-OH) [CSD]
- reversal of spinal morphine antiallodynic tolerance by the single agent [2]: fully restored i.t morphine antiallodynia; also recorded: tolerance reversal was complete
- duration of reversal of morphine tolerance by the single agent ([2]; chronic i.t. morphine): lasted for multiple days
- persistence of antinociceptive tolerance blockade after the last i.t. treatment (day 5), tail flick (rats [4]): 2 days
- reversal of spinal morphine antiallodynic tolerance induced by chronic systemic morphine, single agent ([1]; FIGS. 6A, 6B): essentially fully restored i.t. morphine antiallodynic action
- reversal of tolerance and effect of reapplication of i.t. CSD, male rat ([1]; i.t. 6 μg CSD on day 9, reapplication on day 12, morphine pellets, FIG. 7 right panel): lasted through day 10; also recorded: again restored morphine antiallodynia
- prevention of antiallodynic tolerance to chronic systemic morphine, male rats ([1]; FIG. 4C): works identical in males as in females; also recorded: fully manifest
- prevention of antiallodynic tolerance to chronic systemic morphine, female rats ([1]; FIG. 4A): increase to cutoff in von Frey thresholds; also recorded: fully manifest
- unmasking of antiallodynia of on boarded morphine pellet in systemic morphine tolerant animals ([1]; i.t. CSD 0.33 μg, virtually no pretreatment with i.t. morphine): unmasked robust morphine (from on boarded morphine pellet) antiallodynia
- prevention of tolerance and effect of reapplication of i.t. CSD, female rats ([1]; i.t. CSD 6 μg before morphine pelleting, last on day 5, re-applied on day 11, FIG. 7 left panel): prevented morphine tolerance development; also recorded: morphine antiallodynia was fully manifest
- reversal of tolerance at lower dose of CSD ([1]; i.t. CSD 3, 1, or 0.33 μg, chronic systemic morphine, data not shown): Full reversal of tolerance development
- persistence of tolerance blockade after the last i.t. treatment (day 5), female rats ([1]; i.t. CSD on days 1, 3, 5 with s.c. morphine pellets, FIG. 4A): 3 days
- persistence of tolerance blockade after the last i.t. treatment (day 5), male rats ([1]; i.t. CSD on days 1, 3, 5 with s.c. morphine pellets, FIG. 4C): 3 days
